Test results published in patent publication US20090156620A1, “[4-(6-FLUORO-7-METHYLAMINO-2,4-DIOXO-1,4-DIHYDRO-2H-QUINAZOLIN-3-YL)-PHENYL]-5-CHLORO-THIOPHEN-2-YL-SULFONYLUREA SALTS, FORMS AND METHODS RELATED THERETO” (Portola Pharmaceuticals, Inc., priority 2007, published 2009).
Values joined by “and” are separate entries in the source; they are usually repeats but may differ in a detail not shown here. Equal entries are not always repeated. Where two headings read alike, the source gives them in different places.

How the values were obtained:
[1] = tested on: ADP-induced human platelet aggregation; test: inhibition of ADP-mediated platelet aggregation in platelet-rich plasma (PRP assay); assay type: cell-based
Protocol: The effect of testing the compound according to the invention on ADP-induced human platelet aggregation was assessed in a 96-well microtiter assay (see generally the procedures in Jantzen, H. M. et al. (1999) Thromb. Hemost. 81:111′-117) or standard cuvette light transmittance aggregometry using either human platelet-rich plasma (PRP) or human washed platelets.
For preparation of human platelet-rich plasma for aggregation assays, human venous blood was collected from healthy, drug-free volunteers into 0.38% sodium citrate (0.013 M, pH 7.0 final). Platelet-rich plasma (PRP) is prepared by centrifugation of whole blood at 160×g for 20 minutes at room temperature. […]
For cuvette light transmittance aggregation assays, serial dilutions (1:3) of test compounds were prepared in 100% DMSO in a 96 well V-bottom plate (final DMSO concentration in the cuvette was 0.6%). […] The aggregation reaction is recorded for ˜5 mins, and maximum extent of aggregation is determined by the difference in extent of aggregation at baseline, compared to the maximum aggregation that occurs during the five minute period of the assay. Inhibition of aggregation was calculated as the maximum aggregation observed in the presence of inhibitor, compared to that in the absence of inhibitor. […]

[2] = target: T1, P2Y12 receptor on platelets (Homo sapiens, UniProt Q9H244); test: platelet ADP receptor binding assay (ARB), inhibition of [3H]2-MeS-ADP binding to platelets
T1 construct: endogenous in cells; host or cells: whole apyrase-washed human platelets (outdated from hospital blood banks, or fresh)
Protocol: 1. The Ability of Candidate Molecules to Inhibit the Binding of [3H]2-MeS-ADP to the P2Y12 Receptor on Platelets was Determined Using a Radioligand Binding Assay
Utilizing this assay the potency of inhibition of such compounds with respect to [^3H]2-MeS-ADP binding to whole platelets is determined. Under the conditions described in II (3) below, the binding of [^3H]2-MeS-ADP is solely due to the interaction of this ligand with the P2Y12 receptor, in that all the specific binding measured in this assay is compatable with a P2Y12 antagonist (i.e., the specific binding is reduced to background levels by competition with an excess of P2Y12 antagonist, with no competition of binding when a P2Y1 antagonist is pre-incubated with the platelet preparation). […]
A platelet ADP receptor binding assay (ARB) using the tritiated potent agonist ligand [^3H]2-MeS-ADP (Jantzen, H. M. et al. (1999) Thromb. Hemost. 81:111-117) has been adapted to the 96-well microtiter format. […] Total binding is determined in the absence of test compounds. […] The platelet-bound radioactivity on the filtermats is determined in a scintillation counter (Microbeta 1450, Wallac Inc., Gaithersburg, Md.). Specific binding is determined by subtraction of non-specific binding from total binding, and specific binding in the presence of test compounds is expressed as % of specific binding in the absence of test compound dilutions. […]

[3] = solid form stability on storage at elevated temperature/humidity, by XRPD; assay type: physicochemical; details: for Stability: further changes / Stability: XRPD; for Stability: storage at 40° C./75% RH, days as in the value
Protocol: To 20 mg of [4-(6-fluoro-7-methylamino-2,4-dioxo-1,4-dihydro-2H-quinazolin-3-yl)-phenyl]-5-chloro-thiophen-2-yl-sulfonylurea in 3 mL of the various solvents, was added 1.1 eq. of the base in 1 mL solvent. The mixture was shaken for 2 hours and the solutions were left to evaporate down to half their volume to try to precipitate out the salt. […] Oils/emulsions and opaque liquids were left to maturate at 50° C./ambient in an 8 hour cycles for several weeks. […] Solid samples (crystalline and amorphous) were then filtered, dried and then analyzed to judge their purity, crystallinity and stability. Solids were analysed by ^1H NMR to confirm salt formation and analyzed by ion chromatography and TGA to obtain the stoichiometry of the salt.

[4] = for Aqueous solubility**: aqueous thermodynamic solubility, 25° C., 24 hours, expressed as free base equivalents, 100 mg scale-up samples
Protocol: The suspension was then filtered through a glass fibre C filter into a 96 well plate. […] Quantitation was by HPLC with reference to a standard solution of approximately 0.1 mg.ml^−1. in DMSO. Different volumes of the standard, diluted and undiluted sample solutions were injected.
If there was sufficient solid in the filter plate, the XRPD pattern was collected.

[5] = gravimetric vapour sorption (GVS); assay type: physicochemical; details: for GVS: Total weight change 0-90% RH: 25° C.; for GVS: XRPD post GVS: wrapped cells read: shows new form / matches stability samples / shows no change
Protocol: Sorption isotherms were obtained using a Hiden IGASorp moisture sorption analyser, controlled by CFRSorp software. The sample temperature was maintained at 25° C. by a Huber re-circulating water bath. The humidity was controlled by mixing streams of dry and wet nitrogen, with a total flow rate of 250 ml.min^−1. […] (typical room conditions). A moisture sorption isotherm was performed as outlined below (2 scans giving 1 complete cycle). […] The software uses a least squares minimisation procedure together with a model of the mass relaxation, to predict an asymptotic value. […] The minimum equilibration time was set to 1 hour and the maximum to 4 hours. The sample was recovered after completion of the isotherm and re-analysed by XRPD.

[6] = storage, time not stated (figure legend)
[7] = after a further 10 days at 60° C./75% RH
[8] = a further 4 days at 60° C./75% RH (figure legend)

T1 sequence (Q9H244 whole entry): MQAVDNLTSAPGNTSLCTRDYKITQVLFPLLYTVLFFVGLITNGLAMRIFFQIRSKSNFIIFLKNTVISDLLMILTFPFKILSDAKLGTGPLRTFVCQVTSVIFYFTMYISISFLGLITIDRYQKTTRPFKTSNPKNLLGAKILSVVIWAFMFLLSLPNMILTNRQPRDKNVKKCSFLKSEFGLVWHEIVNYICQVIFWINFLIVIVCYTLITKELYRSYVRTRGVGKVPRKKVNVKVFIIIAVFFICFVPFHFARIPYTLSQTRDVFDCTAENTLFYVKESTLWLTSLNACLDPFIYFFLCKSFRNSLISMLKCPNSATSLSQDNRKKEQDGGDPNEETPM

## CNc1cc2[nH]c(=O)n(-c3ccc(NC(=O)NS(=O)(=O)c4ccc(Cl)s4)cc3)c(=O)c2cc1F [Example 2, [4-(6-fluoro-7-methylamino-2,4-dioxo-1,4-dihydro-2H-quinazolin-3-yl)-phenyl]-5-chloro-thiophen-2-yl-sulfonylurea]
[1]
  IC50: < 10 µM
[2]
  IC50: < 0.05 µM

## CNc1cc2[nH]c(=O)n(-c3ccc(NC(=O)NS(=O)(=O)c4ccc(Cl)s4)cc3)c(=O)c2cc1F.[K] [Potassium hydroxide, [4-(6-fluoro-7-methylamino-2,4-dioxo-1,4-dihydro-2H-quinazolin-3-yl)-phenyl]-5-chloro-thiophen-2-yl-sulfonylurea potassium salt]
[3]
  stability with respect to 40° C./75% RH by XRPD: converts to an amorphous phase
[4]
  Aqueous solubility**: 2700 µg/mL

## CNc1cc2[nH]c(=O)n(-c3ccc(NC(=O)NS(=O)(=O)c4ccc(Cl)s4)cc3)c(=O)c2cc1F.[Na] [Sodium Ethoxide, [4-(6-fluoro-7-methylamino-2,4-dioxo-1,4-dihydro-2H-quinazolin-3-yl)-phenyl]-5-chloro-thiophen-2-yl-sulfonylurea sodium salt]
[3]; after 10 days at 40° C./75% RH
  Stability: further changes: at 40° C./75% RH (no
[3]; sodium salt
  Stability: Some changes after 2 days
[5]
  GVS: Total weight change 0-90% RH: 8.8 wt %, little hysteresis,
  GVS: XRPD post GVS: XRPD post GVS shows new
[4]
  Aqueous solubility**: 7700 µg/mL

## CNc1cc2[nH]c(=O)n(-c3ccc(NC(=O)NS(=O)(=O)c4ccc(Cl)s4)cc3)c(=O)c2cc1F.[Na] [Sodium hydroxide, [4-(6-fluoro-7-methylamino-2,4-dioxo-1,4-dihydro-2H-quinazolin-3-yl)-phenyl]-5-chloro-thiophen-2-yl-sulfonylurea sodium salt]
[3]; sodium salt
  Stability: Amorphous after 3 days at
[3]; [6]
  stability with respect to 40° C./75% RH by XRPD: converts to an amorphous phase

## CNc1cc2[nH]c(=O)n(-c3ccc(NC(=O)NS(=O)(=O)c4ccc(Cl)s4)cc3)c(=O)c2cc1F.N [ammonium salt (form A), [4-(6-fluoro-7-methylamino-2,4-dioxo-1,4-dihydro-2H-quinazolin-3-yl)-phenyl]-5-chloro-thiophen-2-yl-sulfonylurea ammonium salt]
[3]; [6]
  stability with respect to 40° C./75% RH by XRPD: improvements in crystallinity

## CNc1cc2[nH]c(=O)n(-c3ccc(NC(=O)NS(=O)(=O)c4ccc(Cl)s4)cc3)c(=O)c2cc1F.[K] [form C, [4-(6-fluoro-7-methylamino-2,4-dioxo-1,4-dihydro-2H-quinazolin-3-yl)-phenyl]-5-chloro-thiophen-2-yl-sulfonylurea potassium salt]
[5]
  XRPD after the GVS experiment: reduced in crystallinity
[4]; pH of the suspension in the solubility measurement, potassium salt
  pH: 8.7 and 8.8
[4]; water
  Thermodynamic solubility in water: 4500 µg/mL

## [4-(6-fluoro-7-methylamino-2,4-dioxo-1,4-dihydro-2H-quinazolin-3-yl)-phenyl]-5-chloro-thiophen-2-yl-sulfonylurea calcium salt [Calcium acetate]
[3]; 3 days at 40° C./75% RH
  stability by XRPD: remains stable
[3]; [7]
  Stability: further changes: No changes
[3]
  Stability: No changes after 3 days
[3]; [8]
  stability by XRPD: remains stable
[5]
  GVS: Total weight change 0-90% RH: 13 wt %, mostly 80-90% RH,
  GVS: XRPD post GVS: XRPD post GVS matches

## [4-(6-fluoro-7-methylamino-2,4-dioxo-1,4-dihydro-2H-quinazolin-3-yl)-phenyl]-5-chloro-thiophen-2-yl-sulfonylurea tromethamine salt
[3]; 3 days at 40° C./75% RH
  stability by XRPD: some subtle changes
[3]; [7]
  Stability: further changes: at 40° C./75% RH but no
[3]
  Stability: Some changes after 3 days
[3]; [8]
  stability by XRPD: no further changes
[5]
  GVS: Total weight change 0-90% RH: 4.1 wt %, little hysteresis,
  GVS: XRPD post GVS: XRPD post GVS matches
